Measurements: US20210186020A1, “AGRICULTURAL COMPOSITIONS AND METHODS OF USE THEREOF” (Valent U.S.A. LLC, priority 2019, published 2021)

How the values were obtained:
barnyard grass = test: Spray-chamber efficacy of S-3100 with or without fertilizer on potted barnyard grass; type: in vivo, Echinochloa crus-galli; conditions: barnyard grass 10 inches, S-3100 20 grams/ha, Fertilizer 14 liters/ha, 1% v/v Agridex (combination also 1% v/v Intact)
Method: 4 trials were conducted on the efficacy of ethyl [3-[2-chloro-4-fluoro-5-(1-methyl-6-trifluoromethyl-2,4-dioxo-1,2,3,4-tetrahydropyrimidin-3-yl)phenoxy]-2-pyridyloxy]acetate (“S-3100”) with or without a mannitol and/or sorbitol comprising fertilizer. Specifically, 4 pots of barnyard grass were grown to 10 inches in height. These pots were placed in a spray chamber for treatment. All compositions contained 1% v/v of Agridex®. The composition containing S-3100 and fertilizer contained 1% v/v of Intact™. Treatments and results can be found in Table 1, below.

broadleaf grass = test: Spray-chamber efficacy of S-3100 with or without fertilizer on potted broadleaf grass; type: in vivo; conditions: broadleaf grass 10 inches, S-3100 20 grams/ha, Fertilizer 14 liters/ha, 1% v/v Agridex (combination also 1% v/v Intact)
Method: 4 trials were conducted on the efficacy of ethyl [3-[2-chloro-4-fluoro-5-(1-methyl-6-trifluoromethyl-2,4-dioxo-1,2,3,4-tetrahydropyrimidin-3-yl)phenoxy]-2-pyridyloxy]acetate (“S-3100”) with or without a mannitol and/or sorbitol comprising fertilizer. Specifically, 4 pots of broadleaf grass were grown to 10 inches in height. These pots were placed in a spray chamber for treatment. All compositions contained 1% v/v of Agridex®. The composition containing S-3100 and fertilizer contained 1% v/v of Intact™. Treatments and results can be found in Table 2, below.

giant foxtail = test: Spray-chamber efficacy of S-3100 with or without fertilizer on potted giant foxtail; type: in vivo, Setaria faberi; conditions: giant foxtail 10 inches, S-3100 20 grams/ha, Fertilizer 14 liters/ha, 1% v/v Agridex (combination also 1% v/v Intact)
Method: 4 trials were conducted on the efficacy of ethyl [3-[2-chloro-4-fluoro-5-(1-methyl-6-trifluoromethyl-2,4-dioxo-1,2,3,4-tetrahydropyrimidin-3-yl)phenoxy]-2-pyridyloxy]acetate (“S-3100”) with or without a mannitol and/or sorbitol comprising fertilizer. Specifically, 4 pots of giant foxtail were grown to 10 inches in height. These pots were placed in a spray chamber for treatment. All compositions contained 1% v/v of Agridex®. The composition containing S-3100 and fertilizer contained 1% v/v of Intact™. Treatments and results can be found in Table 3, below.

volunteer corn = test: Spray-chamber efficacy of S-3100 with or without fertilizer on potted volunteer corn; type: in vivo, Zea mays; conditions: volunteer corn 15 inches, S-3100 20 grams/ha, Fertilizer 14 liters/ha, 1% v/v Agridex (combination also 1% v/v Intact)
Method: 4 trials were conducted on the efficacy of ethyl [3-[2-chloro-4-fluoro-5-(1-methyl-6-trifluoromethyl-2,4-dioxo-1,2,3,4-tetrahydropyrimidin-3-yl)phenoxy]-2-pyridyloxy]acetate (“S-3100”) with or without a mannitol and/or sorbitol comprising fertilizer. Specifically, 4 pots of volunteer corn were grown to 15 inches in height. These pots were placed in a spray chamber for treatment. All compositions contained 1% v/v of Agridex®. The composition containing S-3100 and fertilizer contained 1% v/v of Intact™. Treatments and results can be found in Table 4, below.

SMILES: CCOC(=O)COc1ncccc1Oc1cc(-n2c(=O)cc(C(F)(F)F)n(C)c2=O)c(F)cc1Cl [S-3100, ethyl [3-[2-chloro-4-fluoro-5-(1-methyl-6-trifluoromethyl-2,4-dioxo-1,2,3,4-tetrahydropyrimidin-3-yl)phenoxy]-2-pyridyloxy]acetate]
- % control, 3 Days After Treatment (barnyard grass; 3 DAT): 73.3%
- % control, 7 Days After Treatment (barnyard grass; 7 DAT): 85.2%
- % control, 13 Days After Treatment (barnyard grass; 13 DAT): 84.7%
- % control, 3 Days After Treatment (broadleaf grass; 3 DAT): 75.0%
- % control, 7 Days After Treatment (broadleaf grass; 7 DAT): 93.0%
- % control, 14 Days After Treatment (broadleaf grass; 14 DAT): 84.2%
- % control, 3 Days After Treatment (giant foxtail; 3 DAT): 76.7%
- % control, 7 Days After Treatment (giant foxtail; 7 DAT): 95.5%
- % control, 14 Days After Treatment (giant foxtail; 14 DAT): 96.1%
- % control, 3 Days After Treatment (volunteer corn; 3 DAT): 65.0%
- % control, 7 Days After Treatment (volunteer corn; 7 DAT): 59.2%
- % control, 14 Days After Treatment (volunteer corn; 14 DAT): 56.7%
